# From patent publication US20070010507A1, “Compounds useful in the therapy of alzheimer's disease and formulations containing them” (priority 2003, published 2007)
# Test system: α-secretase-mediated APP metabolism (SH-SY5Y neuroblastoma cells)
# Test: α-secretase-induced APPs release in culture medium of neuroblastoma cell line SH-SY5Y
# Type: cell-based
# Conditions: 10 μM; APPs secreted in culture medium of SH-SY5Y cells; control = 100
# Protocol: The salts according to the present invention are stable crystalline products having strong antidepressive and anti-Alzheimer actions. The effect of the compounds of the invention on α-secretase-induced APPs release was determined in the culture medium of a neuroblastoma cell line (SH-SY5Y) according to what reported by Galbete J. L. et al. in Biochem. 348,307-313, 2000.
row,Compound,APPs % [%]
1,"CC(C)CCCC1(C)C(CCC(C)C)CC2(CCC(C)C)C(=O)C1(C(=O)C(C)C)C(=O)C(CCC(C)C)=C2O.COc1ccc2c3c1OC1CC(O)C=CC31CCN(C)C2 (stereo not drawn) [Galantamonium octahydrohyperforinate, Galantamine octahydrohyperforinate]",3652
2,CC(C)=CCC[C@]1(C)[C@@H](CC=C(C)C)C[C@@]2(CC=C(C)C)C(=O)[C@]1(C(=O)C(C)C)C(=O)C(CC=C(C)C)=C2O [Hyperforin],296
3,CC(C)CCC[C@]1(C)[C@@H](CCC(C)C)C[C@@]2(CCC(C)C)C(=O)[C@]1(C(=O)C(C)C)C(=O)C(CCC(C)C)=C2O [Octahydrohyperforin],1383
4,Memantine octahydrohyperforinate [Mentamine octahydrohyperforinate],3221

# Same assay, conditions: concentration not given; APPs secreted in culture medium of SH-SY5Y cells; control = 100
row,Compound,APPs % [%]
1,COc1ccc2c3c1O[C@H]1C[C@@H](O)C=C[C@@]31CCN(C)C2 [Galantamine],302
2,CC(C)=CCC[C@]1(C)[C@@H](CC=C(C)C)C[C@@]2(CC=C(C)C)C(=O)[C@]1(C(=O)C(C)C)C(=O)C(CC=C(C)C)=C2O.COc1ccc2c3c1O[C@H]1C[C@@H](O)C=C[C@@]31CCN(C)C2 [Galantamonium hyperforinate],773
